Test results reported in patent US8828908B2, “Herbicidally active bicyclic 1,3-dione compounds” (Syngenta Limited, priority 2007, dated 2014).

Key:
Format in all cases: in vivo
[1] = tested on: Alopecurus myosuroides (ALOMY); experiment: Example A pre-emergence herbicidal glasshouse test; settings: 312 h, Rate 250 g/ha, evaluated after 13 days, 100=total damage to plant, 0=no damage to plant
Description: (§1) Seeds of a variety of test species were sown in standard soil in pots. After cultivation for one day (pre-emergence) or after 8 days cultivation (post-emergence) under controlled conditions in a glasshouse (at 24/16° C., day/night; 14 hours light; 65% humidity), the plants were sprayed with an aqueous spray solution derived from the formulation of the technical active ingredient in acetone/water (50:50) solution containing 0.5% Tween 20 (polyoxyethelyene sorbitan monolaurate, CAS RN 9005-64-5). The test plants were then grown in a glasshouse under controlled conditions in a glasshouse (at 24/16° C., day/night; 14 hours light; 65% humidity) and watered twice daily. After 13 days for pre and post-emergence, the test was evaluated (100=total damage to plant; 0=no damage to plant).
(§2) Alopecurus myosuroides (ALOMY), Avena fatua (AVEFA), Setaria faberi (SETFA), Echinochloa crus-galli (ECHCG), Solanum nigrum (SOLNI) and Amaranthus retroflexus (AMARE)

[2] = tested on: Amaranthus retroflexus (AMARE); experiment: Example A pre-emergence herbicidal glasshouse test; settings: 312 h, Rate 250 g/ha, evaluated after 13 days, 100=total damage to plant, 0=no damage to plant
Description: as §1, §2

Avena fatua (AVEFA) [3] = experiment: Example A pre-emergence herbicidal glasshouse test; settings: 312 h, Rate 250 g/ha, evaluated after 13 days, 100=total damage to plant, 0=no damage to plant
Description: as §1, §2

[4] = tested on: Echinochloa crus-galli (ECHCG); experiment: Example A pre-emergence herbicidal glasshouse test; settings: 312 h, Rate 250 g/ha, evaluated after 13 days, 100=total damage to plant, 0=no damage to plant
Description: as §1, §2

Setaria faberi (SETFA) [5] = experiment: Example A pre-emergence herbicidal glasshouse test; settings: 312 h, Rate 250 g/ha, evaluated after 13 days, 100=total damage to plant, 0=no damage to plant
Description: as §1, §2

[6] = tested on: Alopecurus myosuroides (ALOMY); experiment: Example A post-emergence herbicidal glasshouse test; settings: 312 h, evaluated after 13 days, 100=total damage to plant, 0=no damage
Description: as §1, §2

[7] = tested on: Amaranthus retroflexus (AMARE); experiment: as above; settings: 312 h, evaluated after 13 days, 100=total damage to plant, 0=no damage
Description: as §1, §2

Avena fatua (AVEFA) [8] = experiment: as above; settings: 312 h, evaluated after 13 days, 100=total damage to plant, 0=no damage
Description: as §1, §2

[9] = tested on: Echinochloa crus-galli (ECHCG); experiment: as above; settings: 312 h, evaluated after 13 days, 100=total damage to plant, 0=no damage
Description: as §1, §2

Setaria faberi (SETFA) [10] = experiment: as above; settings: 312 h, evaluated after 13 days, 100=total damage to plant, 0=no damage
Description: as §1, §2

Row | Structure (SMILES) | pest or weed control at 250 g/ha [1] [%] | pest or weed control at 250 g/ha [2] [%] | pest or weed control at 250 g/ha (Avena fatua (AVEFA) [3]) [%] | pest or weed control at 250 g/ha [4] [%] | pest or weed control at 250 g/ha (Setaria faberi (SETFA) [5]) [%] | pest or weed control at 250 g/ha [6] [%] | pest or weed control at 250 g/ha [7] [%] | pest or weed control at 250 g/ha (Avena fatua (AVEFA) [8]) [%] | pest or weed control at 250 g/ha [9] [%] | pest or weed control at 250 g/ha (Setaria faberi (SETFA) [10]) [%]
1 | CCc1ccc(-c2cc(Cl)ccc2OC)cc1C1=C(O)[C@H]2CC[C@H](C2)C1=O (single isomer, unassigned) [Compound T40] | 0 | 0 | 0 | 0 | 0 | 0 | 0 | 0 | 0 | 0
2 | Cc1ccc(-c2ccc(Cl)cc2C(F)(F)F)cc1C1=C(O)[C@H]2CC[C@H](C2)C1=O (single isomer, unassigned) [Compound T42] | 0 | 0 | 0 | 0 | 0 | 0 | 0 | 0 | 0 | 0
3 | CCc1ccc(-c2ccc(Cl)cc2C(F)(F)F)cc1C1=C(O)[C@H]2CC[C@H](C2)C1=O (single isomer, unassigned) [Compound T45] | 0 | 0 | 0 | 0 | 0 | 30 | 0 | 0 | 60 | 70
4 | Cc1ccc(-c2cccc(Cl)c2F)cc1C1=C(O)[C@H]2CC[C@H](C2)C1=O (single isomer, unassigned) [Compound T46] | 0 | 0 | 0 | 0 | 0 | 0 | 0 | 0 | 0 | 0
5 | Cc1ccc(-c2cc(F)cc(Cl)c2)cc1C1=C(O)[C@H]2CC[C@H](C2)C1=O (single isomer, unassigned) [Compound T47] | 0 | 0 | 0 | 0 | 0 | 0 | 0 | 0 | 30 | 0
6 | Cc1ccc(-c2cccc(Cl)c2C)cc1C1=C(O)[C@H]2CC[C@H](C2)C1=O (single isomer, unassigned) [Compound T48] | 0 | 0 | 0 | 0 | 0 | 0 | 0 | 20 | 40 | 40
7 | Cc1ccc(-c2ccc(C)c(C3=C(O)[C@H]4CC[C@H](C4)C3=O)c2)cc1Cl (single isomer, unassigned) [Compound T49] | 0 | 0 | 0 | 30 | 0 | 0 | 0 | 0 | 30 | 30
8 | Cc1ccc(-c2cc(Cl)ccc2C)cc1C1=C(O)[C@H]2CC[C@H](C2)C1=O (single isomer, unassigned) [Compound T50] | 0 | 0 | 0 | 0 | 0 | 0 | 0 | 0 | 30 | 0
9 | Cc1ccc(-c2cc(Cl)ccc2Cl)cc1C1=C(O)[C@H]2CC[C@H](C2)C1=O (single isomer, unassigned) [Compound T51] | 0 | 0 | 0 | 0 | 0 | 0 | 0 | 0 | 0 | 0
